Results from ChEMBL document CHEMBL4619826, “Insights into the Molecular Determinants Involved in Urocontrin and Urocontrin A Action” (ACS Med Chem Lett, 2020).

Tests used:
Urotensin-2 receptor = target: T1, Urotensin-2 receptor (Homo sapiens, UniProt Q9UKP6); test: Antagonist activity at human UT receptor expressed in HEK293 cells using Na [125I] incubated for 2 hrs by gamma counting method; type: cell-based
T1 sequence (Q9UKP6 whole entry): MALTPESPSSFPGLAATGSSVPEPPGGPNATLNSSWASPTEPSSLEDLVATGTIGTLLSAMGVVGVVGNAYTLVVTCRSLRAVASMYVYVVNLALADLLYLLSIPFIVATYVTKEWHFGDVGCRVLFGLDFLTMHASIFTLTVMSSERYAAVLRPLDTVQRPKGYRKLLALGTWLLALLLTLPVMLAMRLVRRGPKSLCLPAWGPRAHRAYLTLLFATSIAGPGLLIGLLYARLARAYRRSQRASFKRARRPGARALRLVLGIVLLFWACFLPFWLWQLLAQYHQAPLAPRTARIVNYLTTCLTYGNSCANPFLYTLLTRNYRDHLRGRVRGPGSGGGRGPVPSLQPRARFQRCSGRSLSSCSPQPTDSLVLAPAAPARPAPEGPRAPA

Thoracic aorta [1] = test: Contractile activity in Sprague-Dawley rat thoracic aorta assessed as ratio of KCl-induced contraction to human U2-induced contraction in aortic ring at 10^-11 to 3 x 10^-6 M relative to control; type: functional
Thoracic aorta [2] = test: Contractile activity in Sprague-Dawley rat thoracic aorta assessed as contraction in aortic ring preincubated ofr 30 mins followed by URP or human U2-stimulation; type: functional, tissue-based
Thoracic aorta [3] = test: Contractile activity in Sprague-Dawley rat thoracic aorta assessed as ratio of KCl-induced contraction to human U2-induced contraction in aortic ring at 10^-6 M (reference value: 101 +/- 4 %); type: functional
Thoracic aorta [4] = test: Contractile activity in Sprague-Dawley rat thoracic aorta assessed as contraction in aortic ring preincubated ofr 30 mins followed by human U2-stimulation (reference value: 8.59 +/- 0.12); type: functional, tissue-based
Thoracic aorta [5] = test: Contractile activity in Sprague-Dawley rat thoracic aorta assessed as ratio of KCl-induced contraction to human U2-induced contraction in aortic ring at 3 x 10^-6 M (reference value: 101 +/- 4 %); type: functional
Thoracic aorta [6] = test: Contractile activity in Sprague-Dawley rat thoracic aorta assessed as contraction in aortic ring preincubated ofr 30 mins followed by URP-stimulation (reference value: 8.16 +/- 0.08); type: functional, tissue-based
Thoracic aorta [7] = test: Contractile activity in Sprague-Dawley rat thoracic aorta assessed as ratio of KCl-induced contraction to URP-induced contraction in aortic ring at 10^-6 M (reference value: 107 +/- 3 %); type: functional
Thoracic aorta [8] = test: Contractile activity in Sprague-Dawley rat thoracic aorta assessed as contraction in aortic ring at 10^-5 M relative to control; type: functional
Thoracic aorta [9] = test: Contractile activity in Sprague-Dawley rat thoracic aorta assessed as ratio of KCl-induced contraction to URP-induced contraction in aortic ring at 3 x 10^-6 M (reference value: 107 +/- 3 %); type: functional
Thoracic aorta [10] = test: Contractile activity in Sprague-Dawley rat thoracic aorta assessed as ratio of KCl-induced contraction to URP-induced contraction in aortic ring at 10^-5 M (reference value: 107 +/- 3 %); type: functional
Thoracic aorta [11] = test: Contractile activity in Sprague-Dawley rat thoracic aorta assessed as ratio of KCl-induced contraction to human U2-induced contraction in aortic ring at 10^-5 M (reference value: 101 +/- 4 %); type: functional

IC50 (Urotensin-2 receptor) [nM] | EC50 (Thoracic aorta [2]) [nM] | EC50 (Thoracic aorta [4]) [nM] | EC50 (Thoracic aorta [6]) [nM] | Structure (SMILES) | Emax (Thoracic aorta [1]) [%] | Emax at 1 µM (Thoracic aorta [3]) [%] | Emax at 3 µM (Thoracic aorta [5]) [%] | Emax at 1 µM (Thoracic aorta [7]) [%] | Emax at 10 µM (Thoracic aorta [8]) [%] | Emax at 3 µM (Thoracic aorta [9]) [%] | Emax at 10 µM (Thoracic aorta [10]) [%] | Emax at 10 µM (Thoracic aorta [11]) [%]
36.3 | > 3160 | 7.59 | 12.9 | CC(C)[C@H](NC(=O)[C@@H]1CSSC[C@H](NC(=O)[C@H](C)N)C(=O)N[C@@H](Cc2ccccc2)C(=O)N[C@@H](Cc2ccc(-c3ccsc3)cc2)C(=O)N[C@@H](CCCCN)C(=O)N[C@@H](Cc2ccc(O)cc2)C(=O)N1)C(=O)O | – | 105 | 20 | 115 | – | – | – | –
155 | > 3160 | 1.41 to 4.47 | 2.95 to 6.46 | CC(C)[C@H](NC(=O)[C@@H]1CSSC[C@H](NC(=O)[C@H](C)N)C(=O)N[C@@H](Cc2ccccc2)C(=O)N[C@@H](Cc2ccc(-c3ccncc3)cc2)C(=O)N[C@@H](CCCCN)C(=O)N[C@@H](Cc2ccc(O)cc2)C(=O)N1)C(=O)O | – | 70 | 5 to 25 | 96 | 9 | 94 | 92 | –
102 | > 3160 | 2.09 | 8.51 | CC(C)[C@H](NC(=O)[C@@H]1CSSC[C@H](NC(=O)[C@H](C)N)C(=O)N[C@@H](Cc2ccccc2)C(=O)N[C@@H](Cc2ccc(-c3cccnc3)cc2)C(=O)N[C@@H](CCCCN)C(=O)N[C@@H](Cc2ccc(O)cc2)C(=O)N1)C(=O)O | – | 94 | 24 | 102 | – | – | – | –
3.16 | 47.9 | – | – | CC(C)[C@H](NC(=O)[C@@H]1CSSC[C@H](NC(=O)[C@H](C)N)C(=O)N[C@@H](Cc2ccccc2)C(=O)N[C@H](Cc2ccc(-c3ccccc3)cc2)C(=O)N[C@@H](CCCCN)C(=O)N[C@@H](Cc2ccc(O)cc2)C(=O)N1)C(=O)O | 97 | – | – | – | – | – | – | –

Further lines, the compound ahead of its results:

Structure (SMILES) | IC50 (Urotensin-2 receptor) [nM] | EC50 (Thoracic aorta [2]) [nM] | EC50 (Thoracic aorta [4]) [nM] | EC50 (Thoracic aorta [6]) [nM] | Emax (Thoracic aorta [1]) [%] | Emax at 1 µM (Thoracic aorta [3]) [%] | Emax at 3 µM (Thoracic aorta [5]) [%] | Emax at 1 µM (Thoracic aorta [7]) [%] | Emax at 10 µM (Thoracic aorta [8]) [%] | Emax at 3 µM (Thoracic aorta [9]) [%] | Emax at 10 µM (Thoracic aorta [10]) [%] | Emax at 10 µM (Thoracic aorta [11]) [%]
CC(C)[C@H](NC(=O)[C@@H]1CSSC[C@H](NC(=O)[C@H](C)N)C(=O)N[C@@H](Cc2ccccc2)C(=O)N[C@@H](Cc2c[nH]c3ccccc23)C(=O)N[C@@H](CCCCN)C(=O)N[C@@H](Cc2ccc(O)cc2)C(=O)N1)C(=O)O | 5.13 | 6.92 | – | – | 107 | – | – | – | – | – | – | –
CC(C)[C@H](NC(=O)[C@@H]1CSSC[C@H](NC(=O)[C@H](C)N)C(=O)N[C@@H](Cc2ccccc2)C(=O)N[C@@H](Cc2ccc(OCc3ccccc3)cc2)C(=O)N[C@@H](CCCCN)C(=O)N[C@@H](Cc2ccc(O)cc2)C(=O)N1)C(=O)O | – | > 3160 | – | – | – | – | 80 | – | – | – | – | –
CC(C)[C@H](NC(=O)[C@@H]1CSSC[C@H](NC(=O)[C@H](C)N)C(=O)N[C@@H](Cc2ccccc2)C(=O)N[C@@H](Cc2ccc(-c3ccc(-c4ccccc4)cc3)cc2)C(=O)N[C@@H](CCCCN)C(=O)N[C@@H](Cc2ccc(O)cc2)C(=O)N1)C(=O)O | 135 | 7.76 | 2.24 to 3.39 | 6.61 to 12 | 9 | 79 | 65 | 99 | – | 95 | 92 | 55
CC(C)[C@H](NC(=O)[C@@H]1CSSC[C@H](NC(=O)[C@H](C)N)C(=O)N[C@@H](Cc2ccccc2)C(=O)N[C@H](Cc2ccc(C#Cc3ccccc3)cc2)C(=O)N[C@@H](CCCCN)C(=O)N[C@@H](Cc2ccc(O)cc2)C(=O)N1)C(=O)O | 12 | 28.2 | – | – | 99 | – | – | – | – | – | – | –
CC(C)[C@H](NC(=O)[C@@H]1CSSC[C@H](NC(=O)[C@H](C)N)C(=O)NC(Cc2ccccc2)C(=O)N[C@H](Cc2ccc(I)cc2)C(=O)N[C@@H](CCCCN)C(=O)N[C@@H](Cc2ccc(O)cc2)C(=O)N1)C(=O)O (stereo in doubt) | 2.45 | 28.8 | – | – | 114 | – | – | – | – | – | – | –
